Laboratory results: US20260198495A1, “BINARY INSECTICIDE COMPOSITION AND USE THEREOF” (SHENYANG SINOCHEM AGROCHEMICALS R & D CO., LTD., priority 2022, published 2026)
Converted amounts (≈) assume the structure as drawn.

Assays:
Assay type in all cases: in vivo
[1] = tested on: Myzus persicae (Sulzer) nymphs; experiment: Joint toxicity of I-72 + fenvalerate, Example 46, Table 46; conditions: A = compound I-72, B = fenvalerate, cabbage leaf spraying, 48 hours, read-out: LC50
Procedure: Test target: Myzus persicae (Sulzer) nymphs, a sensitive strain reared indoors.
(§1) Preparation of the pesticide solution: according to different test requirements, the test samples were accurately weighed respectively with an electronic analytical balance. The technical pesticides were dissolved in acetone, and then diluted with 0.1% Tween 80 water into a series of pesticide solutions with a certain concentration gradient according to the experimental design dosage.
Experimental method: first, cabbage leaves with uniform and consistent Myzus persicae (Sulzer) were selected, with about 30-40 insects on each leaf. Then, they were evenly sprayed with the pesticide solution in the order from low dosage to high dosage according to the experimental design, with 1.5 mL of the solution for each leaf and 3 replicates for each treatment. In addition, a blank control was set up.
(§2) The treated test materials were placed in an observation room, and the temperature, humidity and illumination of the observation room could be adjusted as needed. The number of dead and live insects was investigated 48 hours later. […] Then, the co-toxicity coefficient of each ratio was calculated using the Sun Y-P method to evaluate the mixing effect (the same as in Example 1).

[2] = tested on: 3rd-instar larvae of Hyphantria cunea; experiment: Joint toxicity of I-72 + organophosphorus insecticides, poplar leaf dipping, Example 20, Table 20; conditions: foliar, A = compound I-72, B = triazophos, poplar leaf dipping, 72 hours, read-out: LC50
Excerpt: Test target: 3rd-instar larvae of Hyphantria cunea, a sensitive strain reared indoors.
Experimental method: first, fresh and tender poplar leaves were selected, cut into small sections of 5 cm, and dipped in the prepared pesticide solution for 10 s in the order from low dosage to high dosage according to the experimental design. After natural air-drying in the shade, they were placed in a 9-cm-diameter Petri dish with filter paper, and uniform and healthy test insects were introduced, with 10 insects for each treatment and 3 replicates for each treatment. In addition, a blank control was set up.

[3] = tested on: 2nd-instar larvae of Spodoptera exigua Hübner; experiment: whole plant or invertebrate; conditions: Spodoptera exigua, foliar; A = compound I-72, B = tetrachlorantraniliprole; cabbage leaf dipping; 72 hours; read-out: LC50
Procedure: Test target: 2nd-instar larvae of Spodoptera exigua Hübner.
as §1
(§3) Experimental method: first, cabbage leaves were selected and dipped in the prepared pesticide solution for 10 s in the order from low dosage to high dosage according to the experimental design. After natural air-drying in the shade, they were placed in a 9-cm-diameter Petri dish with filter paper, and uniform and healthy test insects were introduced, with 10 insects for each treatment and 3 replicates for each treatment. In addition, a blank control was set up.
The treated test materials were placed in an observation room, and the temperature, humidity and illumination of the observation room could be adjusted as needed. The number of dead and live insects was investigated 72 hours later.

[4] = tested on: 2nd-instar larvae of Chilo suppressalis (Walker); experiment: Joint toxicity of I-72 + azadirachtin, Example 36, Table 36; conditions: A = compound I-72, B = azadirachtin, rice stalk spraying, 72 hours, chlorantraniliprole-resistant strain, read-out: LC50
Excerpt: Test target: 2nd-instar larvae of Chilo suppressalis (Walker). The insect source was collected from Nanchang, Jiangxi Province, and it is the 11th generation continuously cultured indoors, with a relatively high resistance level to amide pesticides such as chlorantraniliprole.
Experimental method: the spraying method was adopted. Rice stalks with the same length and thickness were selected, cut into the same length, and evenly sprayed with the pesticide solution in the order from low dosage to high dosage according to the experimental design, with 1.5 mL of the pesticide solution for each treatment. The stalks were placed in a 6-cm-diameter Petri dish with filter paper. After natural air-drying in the shade, uniform and healthy test insects were introduced, with 10 insects for each treatment and 4 replicates for each treatment. In addition, a blank control was set up. The number of dead and live insects was investigated 72 hours later. The corrected mortality rate was calculated using the Abbott's formula, and the DPS data processing software was used for statistical analysis to calculate the toxicities (LC50 values) of the single test pesticides and the mixtures under the test ratios.
The test conditions, the preparation of the pesticide solution and the evaluation method were the same as those in Example 1.

[5] = tested on: 3rd-instar larvae of Chilo suppressalis (Walker); experiment: Joint toxicity of I-72 + chlorantraniliprole, Example 57, Table 57; conditions: A = compound I-72, B = chlorantraniliprole, rice stem dipping, 72 hours, read-out: LC50
Procedure: Test target: 3rd-instar larvae of Chilo suppressalis (Walker).
as §1
as §3, with “tender rice stems” for “cabbage leaves”, “control (CK)” for “control”
as §2, with “72” for “48”, “effect,” for “effect (the same”, “1.” for “1).”

[6] = tested on: 3rd-instar larvae of Plutella xylostella; experiment: Joint toxicity of I-72 + metaflumizone, airbrush spraying, Example 4, Table 4; conditions: Plutella xylostella, foliar, airbrush spraying of cabbage leaf disks, 72 h, A = compound I-72, B = metaflumizone, read-out: LC50
Procedure: Test target: 3rd-instar larvae of Plutella xylostella, a sensitive strain reared indoors.
Test conditions: temperature: 25-27° C., humidity: RH 60%, and illumination: L:D=14:10
Experimental method: the airbrush spraying method was adopted. The cabbage cultivated in the greenhouse was taken and made into leaf disks with a diameter of 3 cm. After uniform spraying treatment with an airbrush manual sprayer, the leaf disks were placed in a 9-cm Petri dish lined with filter paper. After natural air-drying in the shade, the standard test insects were introduced, and the number of dead and live insects was investigated 72 h later.
The preparation of the pesticide solution and the evaluation method (Sun Y-P) for the joint action type of the mixture were the same as those in Example 1.

[7] = tested on: adult Bemisia tabaci (Gennadius); experiment: whole plant or invertebrate; conditions: in Phaseolus vulgaris, 72 h
Procedure: as §1
In addition, a blank control was set up. The number of dead and live insects was investigated 72 hours later.

SMILES: CN(C(=O)c1ccc2c(c1)OC(F)(F)O2)c1cccc(C(=O)Nc2c(Br)cc(C(F)(C(F)(F)F)C(F)(F)F)cc2OC(F)F)c1F [Compound I-72]
- LC50 [1]: 8.2 µg/mL
- LC50 [2]: 5.74 µg/mL
- LC50 [3]: 0.252 µg/mL (≈ 0.339 µM)
- LC50 [4]: 0.822 µg/mL
- LC50 [5]: 1.05 µg/mL
- LC50 [6]: 0.0867 µg/mL
- LC50 [7]: 2.91 µg/mL (≈ 3.92 µM)
